Measured values: patent US9862704B2, “Oxindole derivatives carrying an amine-substituted piperidyl-acetidinyl substituent and use thereof for treating vasopressine-related diseases” (AbbVie Deutschland GmbH & Co. KG, priority 2013, dated 2018)
pKi: −log10 of the molar value.

Columns and labels:
[1] = biological target: T1, human vasopressin V1b receptor (Homo sapiens, UniProt P47901); assay: biochemical
T1 sequence (P47901 1-424): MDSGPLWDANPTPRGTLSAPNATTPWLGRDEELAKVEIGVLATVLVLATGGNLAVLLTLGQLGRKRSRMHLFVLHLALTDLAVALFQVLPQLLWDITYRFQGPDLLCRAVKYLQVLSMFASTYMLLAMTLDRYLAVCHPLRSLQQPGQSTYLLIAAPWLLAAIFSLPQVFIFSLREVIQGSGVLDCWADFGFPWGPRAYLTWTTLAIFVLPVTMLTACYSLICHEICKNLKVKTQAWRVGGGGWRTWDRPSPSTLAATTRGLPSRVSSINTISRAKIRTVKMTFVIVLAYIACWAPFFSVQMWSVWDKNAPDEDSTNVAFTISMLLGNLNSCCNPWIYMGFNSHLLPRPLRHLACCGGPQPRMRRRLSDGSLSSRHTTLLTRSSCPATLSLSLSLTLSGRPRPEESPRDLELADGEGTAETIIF

[2] = biological target: human vasopressin V1a receptor (Homo sapiens, UniProt P37288); assay: Vasopressin V1a receptor binding assay; conditions: selectivity quotient, human V1a vs human V1b
human vasopressin V1a receptor, sequence (P37288 whole entry): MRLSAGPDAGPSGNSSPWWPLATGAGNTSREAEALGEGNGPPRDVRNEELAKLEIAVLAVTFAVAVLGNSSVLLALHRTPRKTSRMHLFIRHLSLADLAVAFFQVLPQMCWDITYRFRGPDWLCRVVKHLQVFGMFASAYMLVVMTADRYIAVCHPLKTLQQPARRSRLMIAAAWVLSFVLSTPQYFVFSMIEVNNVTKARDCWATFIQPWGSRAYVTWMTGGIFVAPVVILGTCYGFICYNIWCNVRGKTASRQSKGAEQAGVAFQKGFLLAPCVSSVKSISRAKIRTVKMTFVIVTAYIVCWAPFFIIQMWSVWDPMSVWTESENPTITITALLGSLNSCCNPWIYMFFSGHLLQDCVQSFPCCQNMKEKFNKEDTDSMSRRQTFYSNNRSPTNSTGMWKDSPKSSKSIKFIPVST

Row | SMILES | pKi [1] | Ki(hV1a)/Ki(hV1b) [2]
1 | CCOc1ncccc1[C@]1(NC(=O)N2CC(N3CCC(N4CCCCC4)CC3)C2)C(=O)N(S(=O)(=O)c2ccc(OC)cc2OC)c2ccc(Cl)cc21 [Example 8, (S)-3-([1,4′-bipiperidin]-1′-yl)-N-(5-chloro-1-((2,4-dimethoxyphenyl)sulfonyl)-3-(2-ethoxypyridin-3-yl)-2-oxoindolin-3-yl)azetidine-1-carboxamide] | > 9.00 | 
2 | CCOc1ncccc1[C@]1(NC(=O)N2CC(N3CCC(N4CCCCC4)CC3)C2)C(=O)N(S(=O)(=O)c2ccc(OC)cc2OC)c2ccc(C#N)cc21 [Example 1, N-[(3S)-5-cyano-1-(2,4-dimethoxyphenyl)sulfonyl-3-(2-ethoxy-3-pyridyl)-2-oxoindolin-3-yl]-3-[4-(1-piperidyl)-1-piperidyl]azetidine-1-carboxamide] | > 9.00 | +++ (>75)
3 | CCOc1ncccc1[C@]1(NC(=O)N2CC(N3CCC(N4CCCC4)CC3)C2)C(=O)N(S(=O)(=O)c2ccc(OC)cc2OC)c2ccc(Cl)cc21 [Example 9, (S)—N-(5-chloro-1-((2,4-dimethoxyphenyl)sulfonyl)-3-(2-ethoxypyridin-3-yl)-2-oxoindolin-3-yl)-3-(4-(pyrrolidin-1-yl)piperidin-1-yl)azetidine-1-carboxamide] | > 9.00 | 
4 | CCOc1ncccc1[C@]1(NC(=O)N2CC(N3CCC(N(C)C)CC3)C2)C(=O)N(S(=O)(=O)c2ccc(OC)cc2OC)c2ccc(C#N)cc21 [Example 2, (S)—N-(5-cyano-1-((2,4-dimethoxyphenyl)sulfonyl)-3-(2-ethoxypyridin-3-yl)-2-oxoindolin-3-yl)-3-(4-(dimethylamino)piperidin-1-yl)azetidine-1-carboxamide] | 8.00 to 9.00 | +++ (>75)
5 | CCOc1ncccc1[C@]1(NC(=O)N2CC(N3CCC(N4CCC4)CC3)C2)C(=O)N(S(=O)(=O)c2ccc(OC)cc2OC)c2ccc(C#N)cc21 [Example 7, (S)-3-(4-(azetidin-1-yl)piperidin-1-yl)-N-(5-cyano-1-((2,4-dimethoxyphenyl)sulfonyl)-3-(2-ethoxypyridin-3-yl)-2-oxoindolin-3-yl)azetidine-1-carboxamide] | 8.00 to 9.00 | +++ (>75)
6 | COc1ccc(S(=O)(=O)N2C(=O)[C@@](NC(=O)N3CC(N4CCC(N5CCCC5)CC4)C3)(c3cccnc3OC)c3cc(C#N)ccc32)c(OC)c1 [Example 6, (S)—N-(5-cyano-1-((2,4-dimethoxyphenyl)sulfonyl)-3-(2-methoxypyridin-3-yl)-2-oxoindolin-3-yl)-3-(4-(pyrrolidin-1-yl)piperidin-1-yl)azetidine-1-carboxamide] | 8.00 to 9.00 | +++ (>75)
7 | CCOc1ncccc1[C@]1(NC(=O)N2CC(N3CCC(N(CC)CC)CC3)C2)C(=O)N(S(=O)(=O)c2ccc(OC)cc2OC)c2ccc(C#N)cc21 [Example 3, (S)—N-(5-cyano-1-((2,4-dimethoxyphenyl)sulfonyl)-3-(2-ethoxypyridin-3-yl)-2-oxoindolin-3-yl)-3-(4-(diethylamino)piperidin-1-yl)azetidine-1-carboxamide] | 8.00 to 9.00 | +++ (>75)
8 | COc1ccc(S(=O)(=O)N2C(=O)[C@@](NC(=O)N3CC(N4CCC(N5CCCCC5)CC4)C3)(c3cccnc3OC)c3cc(C#N)ccc32)c(OC)c1 [Example 5, (S)-3-([1,4′-bipiperidin]-1′-yl)-N-(5-cyano-1-((2,4-dimethoxyphenyl)sulfonyl)-3-(2-methoxypyridin-3-yl)-2-oxoindolin-3-yl)azetidine-1-carboxamide] | > 9.00 | +++ (>75)
9 | CCOc1ncccc1[C@]1(NC(=O)N2CC(N3CCC(N4CCCC4)CC3)C2)C(=O)N(S(=O)(=O)c2ccc(OC)cc2OC)c2ccc(C#N)cc21 [Example 4, (S)—N-(5-cyano-1-((2,4-dimethoxyphenyl)sulfonyl)-3-(2-ethoxypyridin-3-yl)-2-oxoindolin-3-yl)-3-(4-(pyrrolidin-1-yl)piperidin-1-yl)azetidine-1-carboxamide] | 8.00 to 9.00 | +++ (>75)
